This is an account of results in ChEMBL document CHEMBL6103569, “Discovery of novel fluorine-containing parthenolide analogues as potential antitumor agents” (Eur J Med Chem, 2025).

As usually defined, the IC50 is the concentration that gives 50% inhibition.

What all share (format): functional, cell-based
A short description of experiment [1]: Antiproliferative activity against human NCI-H820 cells assessed as inhibition of cell growth incubated for 72 hrs by MTT assay.
The subject of a further experiment is Huh-7. In words: Antiproliferative activity against human Huh-7 cells assessed as inhibition of cell growth incubated for 72 hrs by MTT assay. (Tetrazolium assays rely on reduction of a dye to a coloured formazan, in cell work by metabolically active cells.)
In a further experiment the test system is PANC-1. Description: Antiproliferative activity against human PANC-1 cells assessed as inhibition of cell growth incubated for 72 hrs by MTT assay.

With `C=C1C(=O)O[C@H]2[C@H]1CC/C(COC(F)F)=C\CC[C@@]1(C)O[C@@H]21`, the concentration for half-maximal inhibition (IC50) in experiment [1] (Homo sapiens, NCI-H820, 72 h) is 4.32 µM; in the experiment on Huh-7 (Homo sapiens, Huh-7, 72 h), 3.18 µM; with PANC-1 (Homo sapiens, PANC-1, 72 h), 3.31 µM.

Turning to `C[C@@]12CC/C=C(/CC(F)(F)F)CC[C@H]3C(CN4CCC(O)CC4)C(=O)O[C@@H]3[C@@H]1O2` (stereo partly drawn) [listing 1 of 2 here], the half-inhibitory concentration (IC50) came to 4.88 µM in experiment [1] (nci-h820), 2.38 µM with Huh-7 (huh-7) and 5.43 µM in the experiment with PANC-1 (panc-1).

For `C=C1C(=O)O[C@H]2[C@H]1CC/C(C=C(F)F)=C\CC[C@@]1(C)O[C@@H]21`, the IC50 in experiment [1] (Homo sapiens, NCI-H820, 72 h) was determined as 9.9 µM; in the experiment on Huh-7 (Homo sapiens, Huh-7, 72 h), 7.52 µM; in the experiment with PANC-1 (Homo sapiens, PANC-1, 72 h), 14.2 µM.

With `C=C1C(=O)O[C@H]2[C@H]1CC/C(CSC(F)(F)F)=C\CC[C@@]1(C)O[C@@H]21`, the IC50 in experiment [1] (Homo sapiens, NCI-H820, 72 h) is 1.37 µM; with Huh-7 (Homo sapiens, Huh-7, 72 h), 0.99 µM; with PANC-1 (Homo sapiens, PANC-1, 72 h), 1.09 µM.

`C=C1C(=O)O[C@H]2[C@H]1CC/C(C)=C/CC[C@@]1(C)O[C@@H]21` [PARTHENOLIDE]: the IC50 in experiment [1] (Homo sapiens, NCI-H820, 72 h) worked out at 6.35 µM; with Huh-7 (Homo sapiens, Huh-7, 72 h), 3.6 µM; in the experiment with PANC-1 (Homo sapiens, PANC-1, 72 h) it was 5.13 µM.

Turning to `C[C@@]12CC/C=C(/CC(F)(F)F)CC[C@H]3C(CN4CCC(O)CC4)C(=O)O[C@@H]3[C@@H]1O2` (stereo partly drawn) [listing 2 of 2 here], the IC50 in experiment [1] (Homo sapiens, NCI-H820, 72 h) was determined as 6.32 µM; in the experiment on Huh-7 (Homo sapiens, Huh-7, 72 h), 4.38 µM; with PANC-1 (Homo sapiens, PANC-1, 72 h) it was 5.79 µM.

As to `C[C@@]12CC/C=C(/CC(F)(F)F)CC[C@H]3C(CN4CC[C@@H](O)C4)C(=O)O[C@@H]3[C@@H]1O2` (stereo partly drawn), the IC50 worked out at 4.62 µM in experiment [1] (Homo sapiens, NCI-H820, 72 h); 3.34 µM in the experiment on Huh-7 (Homo sapiens, Huh-7, 72 h); 4.88 µM with PANC-1 (Homo sapiens, PANC-1, 72 h).

Consider `C[C@@]12CC/C=C(/CC(F)(F)F)CC[C@H]3C(CN4CCCC4)C(=O)O[C@@H]3[C@@H]1O2` (stereo partly drawn), for which the IC50 in experiment [1] (Homo sapiens, NCI-H820, 72 h) came out at 6.65 µM; in the experiment on Huh-7 (Homo sapiens, Huh-7, 72 h), 3.57 µM; with PANC-1 (Homo sapiens, PANC-1, 72 h) it was 5.68 µM.

With `C[C@@]12CC/C=C(/CC(F)(F)F)CC[C@H]3C(CN4CCC[C@@H]4CO)C(=O)O[C@@H]3[C@@H]1O2` (stereo partly drawn), the IC50 in experiment [1] (Homo sapiens, NCI-H820, 72 h) was determined as 3.11 µM; in the experiment on Huh-7 (Homo sapiens, Huh-7, 72 h), 3.29 µM; in the experiment with PANC-1 (Homo sapiens, PANC-1, 72 h), 3.66 µM.

For `CN1CCN(CC2C(=O)O[C@H]3[C@H]2CC/C(CC(F)(F)F)=C\CC[C@@]2(C)O[C@@H]32)CC1` (stereo partly drawn), the IC50 in experiment [1] (nci-h820) stood at 22.5 µM; with Huh-7 (huh-7) it was 14.2 µM; with PANC-1 (panc-1), 12.7 µM.

As to `CCCNCC1C(=O)O[C@H]2[C@H]1CC/C(CC(F)(F)F)=C\CC[C@@]1(C)O[C@@H]21` (stereo partly drawn), the IC50 in experiment [1] (Homo sapiens, NCI-H820, 72 h) stood at 4.39 µM; in the experiment on Huh-7 (Homo sapiens, Huh-7, 72 h), 4.32 µM; in the experiment on PANC-1 (Homo sapiens, PANC-1, 72 h), 4.59 µM.
